{
  "source": "patent US20060122181A1",
  "about": "“Heteroaromatic pentacyclic compound and medicinal use thereof” (Japan Tobacco Inc., priority 2003, published 2006)",
  "key": {"male SD rats": {"test_system": "male SD rats", "assay": "Effect of concomitant use with insulin on hypoglycemic activity", "format": "in vivo", "settings": "1 hour after vs before insulin", "procedure": "For drawing blood, the animals were fasted after insulin administration. The blood thus taken was centrifuged and the glucose level was measured from the obtained plasma by the hexokinase method (glucose measurement kit). For evaluation, the percentage (%) of decrease in the glucose level of the test compound and insulin concomitant use group and insulin administration group one hour later relative to before insulin administration is shown."}, "female ob/ob mice [1]": {"test_system": "female ob/ob mice", "assay": "Effect of concomitant use with voglibose on hypoglycemic activity (sucrose loading)", "format": "in vivo", "settings": "after sucrose loading 2 g/kg, relative to control", "procedure": "To 9-week-old female ob/ob mice grouped according to glucose level were orally administered a 0.5% methyl cellulose suspension of the test compound {note: Example 4-2 (1 mg/kg)} (test compound-administered group), a 0.5% methyl cellulose suspension of voglibose (0.3 mg/kg) (voglibose-administered group), simultaneously both a 0.5% methyl cellulose suspension of the test compound and a 0.5% methyl cellulose suspension (voglibose 0.3 mg/kg) (test compound and voglibose concomitant use group), or a 0.5% methyl cellulose solution alone (control group). One hour later, sucrose (2 g/5 mL/kg) was loaded.\nBlood was drawn under fasting condition, which condition was started simultaneously with the loading by means of removing the feed. The blood was drawn under anesthesia from the orbital vein 1 and 2 hours after the sucrose loading. The blood thus taken was centrifuged and the glucose level was measured from the obtained plasma by the hexokinase method (glucose kit). For evaluation, the percentage (%) of decrease in the glucose level of each group other than the control group relative to the control group is shown."}, "female ob/ob mice [2]": {"test_system": "female ob/ob mice", "assay": "Effect of concomitant use with glibenclamide on hypoglycemic activity", "format": "in vivo", "settings": "relative to control", "procedure": "(§1) To 10-week-old female ob/ob mice grouped according to glucose level were orally administered a 0.5% methyl cellulose suspension of the test compound {note: Example 4-2 (1 mg/kg)} (test compound-administered group), a 0.5% methyl cellulose suspension of glibenclamide (3 mg/kg) (glibenclamide-administered group), simultaneously both a 0.5% methyl cellulose suspension of the test compound and a 0.5% methyl cellulose suspension (glibenclamide 3 mg/kg) (test compound and glibenclamide concomitant use group), or a 0.5% methyl cellulose solution alone (control group).\nBlood was drawn under fasting condition, which condition was started simultaneously with the administration by means of removing the feed. […] The blood thus taken was centrifuged and the glucose level was measured from the obtained plasma by the hexokinase method (glucose kit). For evaluation, the percentage (%) of decrease in the glucose level of each group other than the control group relative to the control group is shown."}, "female ob/ob mice [3]": {"test_system": "female ob/ob mice", "assay": "Effect of concomitant use with metformin hydrochloride on hypoglycemic activity", "format": "in vivo", "settings": "relative to control", "procedure": "as §1, with “metformin chloride (30” for “glibenclamide (3”, “(metformin-administered” for “(glibenclamide-administered”, “(metformin chloride 30” for “(glibenclamide 3”, “metformin” for “glibenclamide”, “group). The ob/ob mice were fasted for 3 hours before administration.” for “group).”\nBlood was drawn under fasting condition, which condition was started simultaneously with the administration by means of removing the feed. The blood was drawn under anesthesia from the orbital vein 3 and 5 hours after the administration. The blood thus taken was centrifuged and the glucose level was measured from the obtained plasma by the hexokinase method (glucose kit). For evaluation, the percentage (%) of decrease in the glucose level of each group other than the control group relative to the control group is shown."}, "male db/db mice [4]": {"test_system": "male db/db mice", "assay": "Effect of concomitant use with pioglitazone hydrochloride on hypoglycemic activity", "format": "in vivo", "settings": "relative to control; for blood glucose decreasing rate (%) Day 3: 3 hours after administration", "procedure": "To 8-week-old male db/db mice grouped according to full feed glucose level were orally administered a 0.5% methyl cellulose suspension of the test compound {note: Example 4-5 (10 mg/kg)} (test compound-administered group), a 0.5% methyl cellulose suspension of Pioglitazone hydrochloride (3 mg/kg) (Pioglitazone-administered group), simultaneously both a 0.5% methyl cellulose suspension of the test compound and a 0.5% methyl cellulose suspension (Pioglitazone hydrochloride 3 mg/kg) (test compound and Pioglitazone concomitant use group), or a 0.5% methyl cellulose solution alone (control group), once a day for 3 days.\nBlood was drawn under fasting condition, which condition was started simultaneously with the administration by means of removing the feed. The blood was drawn under anesthesia from the orbital vein on day 1 of administration and 3 hours after the administration on day 3. The blood thus taken was centrifuged and the glucose level was measured from the obtained plasma by the hexokinase method (glucose kit). For evaluation, the percentage (%) of decrease in the glucose level of each group other than the control group relative to the control group is shown."}, "male db/db mice [5]": {"test_system": "male db/db mice", "assay": "Effect of concomitant use with tolbutamide on hypoglycemic activity", "format": "in vivo", "settings": "relative to control", "procedure": "To 10-week-old male db/db mice grouped according to glucose level were orally administered a 0.5% methyl cellulose suspension of the test compound {note: Example 4-5 (5 mg/kg)} (test compound-administered group), a 0.5% methyl cellulose suspension of tolbutamide (30 mg/kg) (tolbutamide-administered group), simultaneously both a 0.5% methyl cellulose suspension of the test compound and a 0.5% methyl cellulose suspension (tolbutamide 30 mg/kg) (test compound and tolbutamide concomitant use group), or a 0.5% methyl cellulose solution alone (control group).\nBlood was drawn under fasting condition, which condition was started simultaneously with the administration by means of removing the feed. The blood was drawn under anesthesia from the orbital vein 5 hours after the administration. The blood thus taken was centrifuged and the glucose level was measured from the obtained plasma by the hexokinase method (glucose measurement kit). For evaluation, the percentage (%) of decrease in the glucose level of each group other than the control group relative to the control group is shown."}, "male db/db mice [6]": {"test_system": "male db/db mice", "assay": "Effect of concomitant use with nateglinide on hypoglycemic activity", "format": "in vivo", "settings": "relative to control", "procedure": "To 10-week-old male db/db mice grouped according to glucose level were orally administered a 0.5% methyl cellulose suspension of the test compound {note: Example 4-5 (5 mg/kg)} (test compound-administered group), a 0.5% methyl cellulose suspension of nateglinide (30 mg/kg) (nateglinide-administered group), simultaneously both a 0.5% methyl cellulose suspension of the test compound and a 0.5% methyl cellulose suspension (nateglinide 30 mg/kg) (test compound and nateglinide concomitant use group), or a 0.5% methyl cellulose solution alone (control group).\nBlood was drawn under fasting condition, which condition was started simultaneously with the administration by means of removing the feed. The blood was drawn under anesthesia from the orbital vein 2 hours after the administration. The blood thus taken was centrifuged and the glucose level was measured from the obtained plasma by the hexokinase method (glucose measurement kit). For evaluation, the percentage (%) of decrease in the glucose level of each group other than the control group relative to the control group is shown."}, "[7]": {"settings": "test compound 1 mg/kg + voglibose 0.3 mg/kg oral"}, "[8]": {"settings": "test compound 1 mg/kg oral alone"}, "[9]": {"settings": "test compound 1 mg/kg + glibenclamide 3 mg/kg oral"}, "[10]": {"settings": "test compound 1 mg/kg + metformin chloride 30 mg/kg oral, ob/ob mice"}, "[11]": {"settings": "test compound 1 mg/kg oral alone, ob/ob mice fasted 3 hours before administration"}, "[12]": {"settings": "test compound 10 mg/kg + Pioglitazone hydrochloride 3 mg/kg oral once a day"}, "[13]": {"settings": "test compound 10 mg/kg oral once a day alone"}, "[14]": {"settings": "test compound 5 mg/kg oral alone"}, "[15]": {"settings": "Pioglitazone hydrochloride 3 mg/kg oral once a day alone"}},
  "note": "Counter-ions that a name gives are not always drawn.",
  "data": [
    {"smiles": "CCCC(CCC)c1ccc(CN(C)c2ccc(-c3csc(CN(CC(=O)[O-])Cc4ccccc4)n3)cc2)cc1.[Na+]", "note": "[Example 3-40]", "values": [
      {"measurement": "blood glucose decreasing rate (%) Day of start of administration", "setting": "male SD rats; test compound 30 mg/kg oral once a day + insulin 0.6 U/kg s.c. 3 hours later", "result": 43, "unit": "%"},
      {"measurement": "blood glucose decreasing rate (%) Day 8", "setting": "male SD rats; test compound 30 mg/kg oral once a day for 8 days + insulin 0.6 U/kg s.c.", "result": 36, "unit": "%"}
    ]},
    {"smiles": "CCCC(CCC)c1ccc(OCc2ccc(-c3csc(COc4cncc(C(=O)O)c4)c3)cc2)cc1", "note": "[Example 4-2, 5-(4-{4-[4-(1-Propylbutyl)phenoxymethyl]phenyl}thiophen-2-ylmethoxy)nicotinic acid]", "values": [
      {"measurement": "blood glucose decreasing rate (%) 1 hour later", "setting": "female ob/ob mice [1]; [7]", "result": 49, "unit": "%"},
      {"measurement": "blood glucose decreasing rate (%) 2 hours later", "setting": "female ob/ob mice [1]; [7]", "result": 54, "unit": "%"},
      {"measurement": "blood glucose decreasing rate (%) 1 hour later", "setting": "female ob/ob mice [1]; [8]", "result": 32, "unit": "%"},
      {"measurement": "blood glucose decreasing rate (%) 2 hours later", "setting": "female ob/ob mice [1]; [8]", "result": 40, "unit": "%"},
      {"measurement": "blood glucose decreasing rate (%) 3 hours later", "setting": "female ob/ob mice [2]; [9]", "result": 64, "unit": "%"},
      {"measurement": "blood glucose decreasing rate (%) 15 hours later", "setting": "female ob/ob mice [2]; [9]", "result": 60, "unit": "%"},
      {"measurement": "blood glucose decreasing rate (%) 3 hours later", "setting": "female ob/ob mice [2]; [8]", "result": 48, "unit": "%"},
      {"measurement": "blood glucose decreasing rate (%) 15 hours later", "setting": "female ob/ob mice [2]; [8]", "result": 20, "unit": "%"},
      {"measurement": "blood glucose decreasing rate (%) 3 hours later", "setting": "female ob/ob mice [3]; [10]", "result": 40, "unit": "%"},
      {"measurement": "blood glucose decreasing rate (%) 5 hours later", "setting": "female ob/ob mice [3]; [10]", "result": 51, "unit": "%"},
      {"measurement": "blood glucose decreasing rate (%) 3 hours later", "setting": "female ob/ob mice [3]; [11]", "result": 19, "unit": "%"},
      {"measurement": "blood glucose decreasing rate (%) 5 hours later", "setting": "female ob/ob mice [3]; [11]", "result": 20, "unit": "%"}
    ]},
    {"smiles": "CCCC(CCC)c1ccc(OCc2ccc(-c3ccc(COc4cncc(C(=O)O)c4)s3)cc2)cc1", "note": "[Example 4-5]", "values": [
      {"measurement": "blood glucose decreasing rate (%) Day 3", "setting": "male db/db mice [4]; [12]", "result": 48, "unit": "%"},
      {"measurement": "blood glucose decreasing rate (%) Day of start of administration", "setting": "male db/db mice [4]; [12]", "result": 30, "unit": "%"},
      {"measurement": "blood glucose decreasing rate (%) Day 3", "setting": "male db/db mice [4]; [13]", "result": 32, "unit": "%"},
      {"measurement": "blood glucose decreasing rate (%) Day of start of administration", "setting": "male db/db mice [4]; [13]", "result": 24, "unit": "%"},
      {"measurement": "blood glucose decreasing rate (%) 5 hours later", "setting": "male db/db mice [5]; test compound 5 mg/kg + tolbutamide 30 mg/kg oral", "result": 30, "unit": "%"},
      {"measurement": "blood glucose decreasing rate (%) 5 hours later", "setting": "male db/db mice [5]; [14]", "result": 26, "unit": "%"},
      {"measurement": "melting point", "result": "153 to 155", "unit": "°C"},
      {"measurement": "blood glucose decreasing rate (%) 2 hours later", "setting": "male db/db mice [6]; test compound 5 mg/kg + nateglinide 30 mg/kg oral", "result": 19, "unit": "%"},
      {"measurement": "blood glucose decreasing rate (%) 2 hours later", "setting": "male db/db mice [6]; [14]", "result": 11, "unit": "%"}
    ]},
    {"smiles": "CC(C)[C@H]1CC[C@H](C(=O)N[C@H](Cc2ccccc2)C(=O)O)CC1", "note": "[Nateglinide, nateglinide, reference compound]", "values": [
      {"measurement": "blood glucose decreasing rate (%) 2 hours later", "setting": "male db/db mice [6]; nateglinide 30 mg/kg oral alone", "result": 5, "unit": "%"}
    ]},
    {"smiles": "CCc1ccc(CCOc2ccc(CC3SC(=O)NC3=O)cc2)nc1", "note": "(stereo not drawn) [Pioglitazone, pioglitazone hydrochloride, reference compound]", "values": [
      {"measurement": "blood glucose decreasing rate (%) Day 3", "setting": "male db/db mice [4]; [15]", "result": 44, "unit": "%"},
      {"measurement": "blood glucose decreasing rate (%) Day of start of administration", "setting": "male db/db mice [4]; [15]", "result": 11, "unit": "%"}
    ]},
    {"smiles": "CCCCNC(=O)NS(=O)(=O)c1ccc(C)cc1", "note": "[Tolbutamide, tolbutamide, reference compound]", "values": [
      {"measurement": "blood glucose decreasing rate (%) 5 hours later", "setting": "male db/db mice [5]; tolbutamide 30 mg/kg oral alone", "result": 26, "unit": "%"}
    ]}
  ]
}
